Like-named read-outs stand apart in the source and are kept apart here.
What was measured:
Format in all cases: biochemical
[1] = target: ABHD6 (Mus musculus (Mouse), UniProt Q8R2Y0); experiment: In vitro competitive activity-based protein profiling (mouse brain membrane fraction or cell lysates), ABHD6 band; settings: 1 μM, read-out: ABHD6 % Inh 1 μM (mouse)
Summary of the method: (§1)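 Mouse proteome samples (brain membrane fraction or cell lysate, 1.0 mg/mL protein) were pretreated with varying inhibitor concentrations and subsequently probed with fluorophosphonate-rhodamine, each step lasting 30 min at 37° C. Labelled proteins were separated by SDS-PAGE, and band fluorescence was imaged and quantified.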

[2] = target: MAGL (Homo sapiens (Human), UniProt Q99685); experiment: In vitro competitive activity-based protein profiling (human prefrontal cortex or cell membrane fractions; hMAGL expressed in HEK293T cells)
Method: In Vitro Competitive Activity-Based Protein Profiling (Human).
Proteomes (human prefrontal cortex or cell membrane fractions) (50 μL, 1.0-2.0 mg/mL total protein concentration) were preincubated with varying concentrations of inhibitors at 37° C. After 30 min, FP—Rh or JW912 (1.0 μL, 50 μM in DMSO) was added and the mixture was incubated for another 30 min at room temperature. Reactions were quenched with SDS loading buffer (15 μL-4×) and run on SDS-PAGE.
Recombinant Expression of Human MAGL in HEK293T Cells.
Cell lysates were diluted with mock proteomes for use in competitive ABPP experiments.

[3] = target: FAAH (Mus musculus (Mouse), UniProt O08914); experiment: In vitro competitive activity-based protein profiling (mouse brain membrane fraction or cell lysates), FAAH band; settings: 1 μM; for inhibition at 1 µM: read-out: FAAH % Inh 1 μM (mouse)
Summary of the method: as §1

[4] = target: MAGL (Mus musculus (Mouse), UniProt O35678); experiment: In vitro competitive activity-based protein profiling (mouse brain membrane fraction or cell lysates), MAGL band; settings: 1 μM; for inhibition at 1 µM: read-out: MAGL % Inh 1 μM (mouse)
Method: In Vitro Competitive Activity-Based Protein Profiling.
Proteomes (mouse brain membrane fraction or cell lysates) (50 μL, 1.0 mg/mL total protein concentration) were preincubated with varying concentrations of inhibitors at 37° C. After 30 min, FP—Rh (1.0 μL, 50 μM in DMSO) was added and the mixture was incubated for another 30 min at 37° C. Reactions were quenched with SDS loading buffer (50 μL-4×) and run on SDS-PAGE.

[5] = human proteome, competitive ABPP

Sequence of ABHD6 (Q8R2Y0 whole entry): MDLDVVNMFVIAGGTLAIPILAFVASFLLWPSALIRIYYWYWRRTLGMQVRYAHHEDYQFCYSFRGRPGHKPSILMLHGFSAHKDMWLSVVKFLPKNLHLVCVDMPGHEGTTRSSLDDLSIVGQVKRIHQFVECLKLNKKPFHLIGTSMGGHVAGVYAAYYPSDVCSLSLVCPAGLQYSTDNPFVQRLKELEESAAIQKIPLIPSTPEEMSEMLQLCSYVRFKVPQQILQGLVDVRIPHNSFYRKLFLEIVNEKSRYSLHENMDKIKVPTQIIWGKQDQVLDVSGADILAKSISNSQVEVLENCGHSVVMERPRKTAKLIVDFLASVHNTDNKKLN
Sequence of MAGL (Homo sapiens (Human), UniProt Q99685) (Q99685 whole entry): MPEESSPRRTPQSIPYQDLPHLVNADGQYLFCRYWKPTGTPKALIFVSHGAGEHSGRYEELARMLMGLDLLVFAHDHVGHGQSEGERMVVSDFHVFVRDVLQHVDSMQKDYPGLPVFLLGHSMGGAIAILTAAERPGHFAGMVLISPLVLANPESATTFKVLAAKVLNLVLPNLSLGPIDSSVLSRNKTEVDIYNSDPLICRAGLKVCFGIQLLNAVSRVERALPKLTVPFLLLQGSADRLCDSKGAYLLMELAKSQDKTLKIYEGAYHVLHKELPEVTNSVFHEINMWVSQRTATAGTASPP
Sequence of FAAH (O08914 whole entry): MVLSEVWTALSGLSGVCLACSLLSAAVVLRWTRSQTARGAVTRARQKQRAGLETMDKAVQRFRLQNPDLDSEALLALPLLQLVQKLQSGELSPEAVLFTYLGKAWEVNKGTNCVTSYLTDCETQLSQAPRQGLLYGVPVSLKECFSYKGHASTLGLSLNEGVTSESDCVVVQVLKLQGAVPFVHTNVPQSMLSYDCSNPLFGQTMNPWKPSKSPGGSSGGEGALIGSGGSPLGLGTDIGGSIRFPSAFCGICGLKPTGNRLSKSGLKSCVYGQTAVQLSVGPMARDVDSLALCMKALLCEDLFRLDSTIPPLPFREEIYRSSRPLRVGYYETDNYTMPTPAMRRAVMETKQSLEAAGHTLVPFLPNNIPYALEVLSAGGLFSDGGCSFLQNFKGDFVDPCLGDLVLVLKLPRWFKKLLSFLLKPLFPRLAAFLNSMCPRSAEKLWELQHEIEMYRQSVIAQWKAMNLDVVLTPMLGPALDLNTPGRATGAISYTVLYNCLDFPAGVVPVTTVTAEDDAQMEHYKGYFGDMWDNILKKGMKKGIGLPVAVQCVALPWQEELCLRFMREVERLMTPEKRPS
Sequence of MAGL (Mus musculus (Mouse), UniProt O35678) (O35678 whole entry): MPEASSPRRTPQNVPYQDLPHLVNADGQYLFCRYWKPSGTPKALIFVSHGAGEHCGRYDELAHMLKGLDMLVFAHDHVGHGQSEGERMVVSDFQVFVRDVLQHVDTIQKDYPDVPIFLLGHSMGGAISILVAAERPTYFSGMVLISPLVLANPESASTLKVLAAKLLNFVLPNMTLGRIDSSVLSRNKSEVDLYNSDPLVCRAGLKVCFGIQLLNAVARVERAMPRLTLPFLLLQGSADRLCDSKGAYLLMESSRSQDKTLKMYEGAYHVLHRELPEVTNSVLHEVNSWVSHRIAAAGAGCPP

SMILES | inhibition at 1 µM ([1]; mouse proteome) [%] | IC50 [2, 5] [nM] | inhibition at 1 µM ([3]; mouse proteome) [%] | inhibition at 1 µM ([4]; mouse proteome) [%] | inhibition at 1 µM ([1]; mouse) [%] | IC50 ([2]; human) [nM] | FAAH % Inh 1 μM (mouse) ([3]; mouse) | MAGL % Inh 1 μM (mouse) ([4]; mouse) | inhibition at 1 µM ([3]; mouse) [%] | inhibition at 1 µM ([4]; mouse) [%]
O=C(O)C1CCN(c2cc(CN3CCC4(CCN(C(=O)OC(C(F)(F)F)C(F)(F)F)CC4)C3)cc(C(F)(F)F)c2)C1 (stereo not shown) [Example 202] | ≥ 75 | < 100 | < 25 | > 75 | – | – | – | – | – | –
O=C(O)C1CCN(c2cc(CN3CCCC34CCN(C(=O)OC(C(F)(F)F)C(F)(F)F)CC4)cc(C(F)(F)F)c2)C1 (stereo not shown) [Example 203] | < 25 | < 100 | < 25 | > 75 | – | – | – | – | – | –
O=C(O)C1CN(c2cc(CN3CCCC34CCN(C(=O)OC(C(F)(F)F)C(F)(F)F)CC4)cc(C(F)(F)F)c2)CCO1 (stereo not shown) [Example 204] | < 25 | < 100 | < 25 | > 75 | – | – | – | – | – | –
O=C(OC(C(F)(F)F)C(F)(F)F)N1CCC2(CCCN2Cc2cc(-c3nnn[nH]3)cc(C(F)(F)F)c2)CC1 [Example 205] | 25 to 75 | < 100 | < 25 | > 75 | – | – | – | – | – | –
O=C(O)c1cc(CN2CCCC23CCN(C(=O)OC(C(F)(F)F)C(F)(F)F)CC3)cc(C(F)(F)F)c1 [Example 206] | 25 to 75 | < 100 | < 25 | > 75 | – | – | – | – | – | –
O=C(O)C1CN(c2cc(C(F)(F)F)ccc2CN2CCC3(CCN(C(=O)OC(C(F)(F)F)C(F)(F)F)CC3)C2)CCO1 (stereo not shown) [Example 209] | 25 to 75 | < 100 | < 25 | > 75 | – | – | – | – | – | –
O=C(O)[C@H]1CCCN(c2cc(C(F)(F)F)ccc2CN2CCC3(CCN(C(=O)OC(C(F)(F)F)C(F)(F)F)CC3)C2)C1 [Example 215] | ≥ 75 | < 100 | < 25 | > 75 | – | – | – | – | – | –
CC1(C(=O)O)CCN(c2cc(C(F)(F)F)ccc2CN2CCC3(CCN(C(=O)OC(C(F)(F)F)C(F)(F)F)CC3)C2)C1 (stereo not shown) [Example 219] | ≥ 75 | < 100 | < 25 | > 75 | – | – | – | – | – | –
O=C(O)[C@@H]1CCCN(c2cc(CN3CCC4(CCN(C(=O)OC(C(F)(F)F)C(F)(F)F)CC4)C3)cc(C(F)(F)F)c2)C1 [Example 222] | – | – | – | – | < 25 | < 100 | # (# is <25%) | ### (### is ≥75%) | – | –
CC1(C(=O)O)CCCN(c2cc(CN3CCC4(CCN(C(=O)OC(C(F)(F)F)C(F)(F)F)CC4)C3)cc(C(F)(F)F)c2)C1 (stereo not shown) [Example 223] | – | – | – | – | < 25 | < 100 | – | – | < 25 | > 75
O=C(O)C1CCCCN1c1cc(CN2CCC3(CCN(C(=O)OC(C(F)(F)F)C(F)(F)F)CC3)C2)cc(C(F)(F)F)c1 (stereo not shown) [Example 225] | – | – | – | – | < 25 | < 100 | – | – | < 25 | > 75
O=C(O)C1CCN(c2ccc(CN3CCC4(CCN(C(=O)OC(C(F)(F)F)C(F)(F)F)CC4)C3)cc2C(F)(F)F)CC1 [Example 228] | – | – | – | – | ≥ 75 | < 100 | – | – | < 25 | > 75
CC1(C(=O)O)CCN(c2cc(CN3CCC4(CCN(C(=O)OC(C(F)(F)F)C(F)(F)F)CC4)C3)cc(C(F)(F)F)c2)C1 (stereo not shown) [Example 229] | – | – | – | – | ≥ 75 | < 100 | – | – | < 25 | > 75
O=C(O)C1CCN(c2cc(Cl)cc(CN3CCC4(CCN(C(=O)OC(C(F)(F)F)C(F)(F)F)CC4)C3)c2)CC1 [Example 232] | – | – | – | – | 25 to 75 | < 100 | – | – | < 25 | > 75
O=C(O)C1CCN(c2cc(F)cc(CN3CCC4(CCN(C(=O)OC(C(F)(F)F)C(F)(F)F)CC4)C3)c2)CC1 [Example 233] | – | – | – | – | 25 to 75 | < 100 | – | – | < 25 | > 75
O=C(O)C1CCN(c2cc(CN3CCC4(CCN(C(=O)OC(C(F)(F)F)C(F)(F)F)CC4)C3)ccc2C(F)(F)F)CC1 [Example 234] | – | – | – | – | ≥ 75 | < 100 | – | – | < 25 | > 75
O=C(O)C1CCN(Cc2cc(C(F)(F)F)ccc2CN2CCC3(CCN(C(=O)OC(C(F)(F)F)C(F)(F)F)CC3)C2)CC1 [Example 239] | – | – | – | – | < 25 | < 100 | – | – | < 25 | > 75
O=C(O)C1CCN(c2cc(S(F)(F)(F)(F)F)ccc2CN2CCC3(CCN(C(=O)OC(C(F)(F)F)C(F)(F)F)CC3)C2)CC1 [Example 241] | – | – | – | – | ≥ 75 | < 100 | – | – | < 25 | > 75
O=C(O)C1CCN(Cc2cc(CN3CCC4(CCN(C(=O)OC(C(F)(F)F)C(F)(F)F)CC4)C3)cc(C(F)(F)F)c2)CC1 [Example 245] | – | – | – | – | ≥ 75 | < 100 | – | – | < 25 | > 75
O=C(O)C1CCN(Cc2ccc(CN3CCC4(CCN(C(=O)OC(C(F)(F)F)C(F)(F)F)CC4)C3)cc2C(F)(F)F)CC1 [Example 247] | – | – | – | – | ≥ 75 | < 100 | – | – | < 25 | > 75
CC1(C(=O)O)CN(c2cc(CN3CCC4(CCN(C(=O)OC(C(F)(F)F)C(F)(F)F)CC4)C3)cc(C(F)(F)F)c2)CCO1 (stereo not shown) [Example 252] | – | – | – | – | ≥ 75 | < 100 | – | – | < 25 | > 75
O=C(O)c1ccc(CN2CCC3(CCN(C(=O)OC(C(F)(F)F)C(F)(F)F)CC3)C2)cc1C(F)(F)F [Example 258] | – | – | – | – | ≥ 75 | > 1000 | – | – | < 25 | > 75
O=C(O)c1cc(C(F)(F)F)ccc1CN1CCCC12CCN(C(=O)OC(C(F)(F)F)C(F)(F)F)CC2 [Example 261] | – | – | – | – | < 25 | < 100 | – | – | < 25 | 25 to 75
O=C(O)C1CCN(c2cc(CN3CCCC34CCN(C(=O)OC(C(F)(F)F)C(F)(F)F)CC4)cc(S(F)(F)(F)(F)F)c2)CC1 [Example 263] | – | – | – | – | 25 to 75 | < 100 | – | – | < 25 | > 75
O=C(O)C1CCN(c2cc(CN3CCC4(CCN(C(=O)OC(C(F)(F)F)C(F)(F)F)CC4)C3)cc(S(F)(F)(F)(F)F)c2)CC1 [Example 264] | – | – | – | – | ≥ 75 | < 100 | – | – | < 25 | > 75
O=C(O)c1ccc(CN2CCCC23CCN(C(=O)OC(C(F)(F)F)C(F)(F)F)CC3)c(C(F)(F)F)c1 [Example 265] | – | – | – | – | ≥ 75 | < 100 | – | – | < 25 | > 75
NC(=O)C1CCN(C(=O)c2cc(C(F)(F)F)ccc2CN2CCCC23CCN(C(=O)OC(C(F)(F)F)C(F)(F)F)CC3)CC1 [Example 276] | – | – | – | – | 25 to 75 | < 100 | – | – | < 25 | > 75
O=C(O)C1CN(c2cc(CN3CCC4(CCN(C(=O)OC(C(F)(F)F)C(F)(F)F)CC4)C3)cc(C(F)(F)F)c2)CCO1 (stereo not shown) [Example 277] | – | – | – | – | ≥ 75 | < 100 | – | – | < 25 | > 75
